Measured values published in ChEMBL document CHEMBL4152312, “Identification of fused pyrimidines as interleukin 17 secretion inhibitors” (Eur J Med Chem, 2018).

Tests used:
[1] = molecular target: Tyrosine-protein kinase Lyn (Homo sapiens) (UniProt P07948); assay: Inhibition of recombinant human full-length N-terminal GST-tagged LYN-A expressed in insect cells at 500 nM by Z-LYTE assay relative to control
[2] = molecular target: Glycogen synthase kinase-3 beta (Homo sapiens) (UniProt P49841); assay: Inhibition of recombinant full-length human His-tagged GSK3beta expressed in baculovirus expression system at 500 nM by Z-LYTE assay relative to control
[3] = molecular target: Tyrosine-protein kinase ABL1 (Homo sapiens) (UniProt P00519); assay: Inhibition of recombinant human full length His-tagged ABL1 expressed in baculovirus expression system at 500 nM by Z-LYTE assay relative to control
[4] = molecular target: Protein kinase C alpha type (Homo sapiens) (UniProt P17252); assay: Inhibition of recombinant human full length untagged PKCalpha expressed in baculovirus expression system at 500 nM by Z-LYTE assay relative to control
[5] = molecular target: Tyrosine-protein kinase JAK1 (Homo sapiens) (UniProt P23458); assay: Inhibition of recombinant human GST-tagged JAK1 cytoplasmic domain expressed in baculovirus expression system at 500 nM by Z-LYTE assay relative to control
[6] = molecular target: PI3K p110 beta/p85 alpha (Homo sapiens) (UniProt P27986+P42338); assay: Inhibition of PI3K p110beta/p85alpha (unknown origin) at 500 nM by Z-LYTE assay relative to control; assay type: protein-complex assay
[7] = molecular target: Protein kinase C beta type (Homo sapiens) (UniProt P05771); assay: Inhibition of recombinant full length human GST-tagged PKCbeta-1 expressed in insect cells at 500 nM by Z-LYTE assay relative to control
[8] = molecular target: Receptor-type tyrosine-protein kinase FLT3 (Homo sapiens) (UniProt P36888); assay: Inhibition of recombinant human His-tagged FLT3 cytoplasmic domain (564 to 958 residues) expressed in baculovirus expression system at 500 nM by Z-LYTE assay relative to control
PBMC [9] = assay: Inhibition of IL-17 secretion in anti-human CD3 antibody/anti-human CD28 antibody/IL23-stimulated human PBMC after 48 hrs by ELISA; assay type: functional, cell-based
[10] = molecular target: Rho-associated protein kinase 2 (Homo sapiens) (UniProt O75116); assay: Inhibition of recombinant human N-terminal GST-tagged ROCK2 cytoplasmic domain (1 to 552 residues) expressed in baculovirus expression system at 500 nM by Z-LYTE assay relative to control
[11] = molecular target: Tyrosine-protein kinase JAK2 (Homo sapiens) (UniProt O60674); assay: Inhibition of recombinant human GST-tagged JAK2 cytoplasmic domain (809 to […] residues) expressed in baculovirus expression system at 500 nM by Z-LYTE assay relative to control
[12] = molecular target: Tyrosine-protein kinase BTK (Homo sapiens) (UniProt Q06187); assay: Inhibition of recombinant human full length His-tagged BTK expressed in baculovirus expression system at 500 nM by Z-LYTE assay relative to control
[13] = molecular target: Phosphatidylinositol 4,5-bisphosphate 3-kinase catalytic subunit gamma isoform (Homo sapiens) (UniProt P48736); assay: Inhibition of recombinant full length human His-tagged PI3K p110ggamma at 500 nM by Z-LYTE assay relative to control
[14] = molecular target: Mast/stem cell growth factor receptor Kit (Homo sapiens) (UniProt P10721); assay: Inhibition of recombinant human His-tagged KIT cytoplasmic domain (544 to 976 residues) expressed in baculovirus expression system at 500 nM by Z-LYTE assay relative to control
[15] = molecular target: Tyrosine-protein kinase Yes (Homo sapiens) (UniProt P07947); assay: Inhibition of human full length GST-tagged YES1 expressed in baculovirus expression system at 500 nM by Z-LYTE assay relative to control
[16] = molecular target: Serine/threonine-protein kinase mTOR (Homo sapiens) (UniProt P42345); assay: Inhibition of recombinant human GST-tagged mTOR cytoplasmic domain (1360 to 2549 residues) expressed in baculovirus expression system at 500 nM by Z-LYTE assay relative to control
PBMC [17] = assay: Cytotoxicity against human PBMC assessed as induction of cell death by cell Titer-Glo assay; assay type: cell-based
[18] = molecular target: Macrophage colony-stimulating factor 1 receptor (Homo sapiens) (UniProt P07333); assay: Inhibition of recombinant human His-tagged CSF1R (538 to 910 residues) expressed in baculovirus expression system at 500 nM by Z-LYTE assay relative to control
[19] = molecular target: Mitogen-activated protein kinase 3 (Homo sapiens) (UniProt P27361); assay: Inhibition of recombinant human full length GST-tagged ERK1 expressed in Escherichia coli at 500 nM by Z-LYTE assay relative to control
[20] = molecular target: Mitogen-activated protein kinase 1 (Homo sapiens) (UniProt P28482); assay: Inhibition of recombinant human full length GST-tagged ERK2 expressed in Escherichia coli at 500 nM by Z-LYTE assay relative to control
[21] = molecular target: Mitogen-activated protein kinase 14 (Homo sapiens) (UniProt Q16539); assay: Inhibition of recombinant human full length His-tagged p38-alpha expressed in baculovirus expression system at 500 nM by Z-LYTE assay relative to control
[22] = molecular target: Tyrosine-protein kinase Lck (Homo sapiens) (UniProt P06239); assay: Inhibition of recombinant full-length human His-tagged LCK expressed in baculovirus expression system at 500 nM by Z-LYTE assay relative to control
[23] = molecular target: Vascular endothelial growth factor receptor 2 (Homo sapiens) (UniProt P35968); assay: Inhibition of recombinant human His-tagged KDR cytoplasmic domain (789 to 1356 residues) expressed in baculovirus expression system at 500 nM by Z-LYTE assay relative to control
[24] = molecular target: Receptor tyrosine-protein kinase erbB-2 (Homo sapiens) (UniProt P04626); assay: Inhibition of recombinant human His-tagged ERBB2 cytoplasmic domain expressed in baculovirus expression system at 500 nM by Z-LYTE assay relative to control
[25] = molecular target: Proto-oncogene tyrosine-protein kinase Src (Homo sapiens) (UniProt P12931); assay: Inhibition of human full length Src expressed in baculovirus expression system at 500 nM by Z-LYTE assay relative to control

Chain of Tyrosine-protein kinase Lyn (Homo sapiens) (P07948 2-512 limits assumed): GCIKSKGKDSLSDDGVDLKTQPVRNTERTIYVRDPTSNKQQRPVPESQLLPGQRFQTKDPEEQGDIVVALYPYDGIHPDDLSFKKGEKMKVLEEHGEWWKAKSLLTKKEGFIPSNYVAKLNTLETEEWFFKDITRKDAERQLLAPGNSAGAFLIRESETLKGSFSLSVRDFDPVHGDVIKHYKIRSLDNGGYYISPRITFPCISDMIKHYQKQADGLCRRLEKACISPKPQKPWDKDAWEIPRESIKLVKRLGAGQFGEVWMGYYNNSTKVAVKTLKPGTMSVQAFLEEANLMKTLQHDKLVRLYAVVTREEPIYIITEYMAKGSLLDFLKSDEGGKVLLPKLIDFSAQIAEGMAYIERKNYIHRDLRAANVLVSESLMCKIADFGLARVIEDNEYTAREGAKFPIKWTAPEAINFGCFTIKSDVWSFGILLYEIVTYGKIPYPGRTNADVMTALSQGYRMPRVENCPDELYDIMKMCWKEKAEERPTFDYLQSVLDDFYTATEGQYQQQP
Chain of Phosphatidylinositol 4,5-bisphosphate 3-kinase catalytic subunit gamma isoform (Homo sapiens) (P48736 whole entry, looked up, the tested form may be a part, canonical isoform): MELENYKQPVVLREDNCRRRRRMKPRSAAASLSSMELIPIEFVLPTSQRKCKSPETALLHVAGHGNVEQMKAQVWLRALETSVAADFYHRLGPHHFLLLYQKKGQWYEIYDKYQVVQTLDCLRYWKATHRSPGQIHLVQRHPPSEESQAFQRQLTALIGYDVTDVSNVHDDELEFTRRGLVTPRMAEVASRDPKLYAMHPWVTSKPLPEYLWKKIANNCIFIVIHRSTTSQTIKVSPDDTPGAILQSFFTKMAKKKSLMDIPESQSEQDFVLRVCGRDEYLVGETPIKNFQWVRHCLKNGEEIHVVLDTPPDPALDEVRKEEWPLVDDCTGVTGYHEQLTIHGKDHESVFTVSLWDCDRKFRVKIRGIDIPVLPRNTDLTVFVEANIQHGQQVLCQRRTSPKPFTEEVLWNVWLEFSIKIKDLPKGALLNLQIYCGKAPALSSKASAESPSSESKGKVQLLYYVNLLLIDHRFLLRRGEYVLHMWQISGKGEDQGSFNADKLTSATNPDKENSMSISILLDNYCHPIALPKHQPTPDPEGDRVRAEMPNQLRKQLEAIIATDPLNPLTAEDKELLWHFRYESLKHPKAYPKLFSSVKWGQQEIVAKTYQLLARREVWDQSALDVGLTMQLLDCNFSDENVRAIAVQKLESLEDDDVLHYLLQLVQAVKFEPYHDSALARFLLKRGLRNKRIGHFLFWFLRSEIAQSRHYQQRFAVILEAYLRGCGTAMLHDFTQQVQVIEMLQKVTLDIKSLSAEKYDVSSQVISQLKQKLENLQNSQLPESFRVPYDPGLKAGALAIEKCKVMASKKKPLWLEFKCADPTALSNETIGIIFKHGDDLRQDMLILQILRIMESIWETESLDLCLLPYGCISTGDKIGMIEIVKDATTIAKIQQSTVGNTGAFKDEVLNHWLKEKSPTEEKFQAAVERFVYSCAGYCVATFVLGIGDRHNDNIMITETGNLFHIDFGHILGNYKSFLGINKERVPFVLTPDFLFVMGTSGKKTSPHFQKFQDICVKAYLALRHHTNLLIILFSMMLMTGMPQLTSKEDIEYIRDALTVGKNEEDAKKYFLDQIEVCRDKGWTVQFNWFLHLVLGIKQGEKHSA
Chain of Tyrosine-protein kinase BTK (Homo sapiens) (Q06187 whole entry, canonical isoform): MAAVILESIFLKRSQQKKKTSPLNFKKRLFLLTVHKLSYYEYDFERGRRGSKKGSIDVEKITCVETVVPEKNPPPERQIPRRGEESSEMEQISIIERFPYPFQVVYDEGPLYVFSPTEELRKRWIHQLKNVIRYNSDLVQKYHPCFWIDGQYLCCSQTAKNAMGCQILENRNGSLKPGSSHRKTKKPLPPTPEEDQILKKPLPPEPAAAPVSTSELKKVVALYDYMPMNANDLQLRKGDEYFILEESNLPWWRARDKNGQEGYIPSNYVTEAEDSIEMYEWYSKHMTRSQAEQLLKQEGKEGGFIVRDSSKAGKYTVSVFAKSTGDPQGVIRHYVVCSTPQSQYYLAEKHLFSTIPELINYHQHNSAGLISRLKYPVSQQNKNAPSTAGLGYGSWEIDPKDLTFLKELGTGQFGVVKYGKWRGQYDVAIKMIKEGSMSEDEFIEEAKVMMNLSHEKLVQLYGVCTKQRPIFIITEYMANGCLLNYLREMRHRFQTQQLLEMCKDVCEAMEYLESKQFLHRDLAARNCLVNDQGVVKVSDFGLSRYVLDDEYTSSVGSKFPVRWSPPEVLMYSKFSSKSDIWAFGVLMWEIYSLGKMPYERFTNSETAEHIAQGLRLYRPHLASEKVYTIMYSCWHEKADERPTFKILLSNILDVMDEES
Chain of Tyrosine-protein kinase JAK1 (Homo sapiens) (P23458 whole entry, the tested form may be a part): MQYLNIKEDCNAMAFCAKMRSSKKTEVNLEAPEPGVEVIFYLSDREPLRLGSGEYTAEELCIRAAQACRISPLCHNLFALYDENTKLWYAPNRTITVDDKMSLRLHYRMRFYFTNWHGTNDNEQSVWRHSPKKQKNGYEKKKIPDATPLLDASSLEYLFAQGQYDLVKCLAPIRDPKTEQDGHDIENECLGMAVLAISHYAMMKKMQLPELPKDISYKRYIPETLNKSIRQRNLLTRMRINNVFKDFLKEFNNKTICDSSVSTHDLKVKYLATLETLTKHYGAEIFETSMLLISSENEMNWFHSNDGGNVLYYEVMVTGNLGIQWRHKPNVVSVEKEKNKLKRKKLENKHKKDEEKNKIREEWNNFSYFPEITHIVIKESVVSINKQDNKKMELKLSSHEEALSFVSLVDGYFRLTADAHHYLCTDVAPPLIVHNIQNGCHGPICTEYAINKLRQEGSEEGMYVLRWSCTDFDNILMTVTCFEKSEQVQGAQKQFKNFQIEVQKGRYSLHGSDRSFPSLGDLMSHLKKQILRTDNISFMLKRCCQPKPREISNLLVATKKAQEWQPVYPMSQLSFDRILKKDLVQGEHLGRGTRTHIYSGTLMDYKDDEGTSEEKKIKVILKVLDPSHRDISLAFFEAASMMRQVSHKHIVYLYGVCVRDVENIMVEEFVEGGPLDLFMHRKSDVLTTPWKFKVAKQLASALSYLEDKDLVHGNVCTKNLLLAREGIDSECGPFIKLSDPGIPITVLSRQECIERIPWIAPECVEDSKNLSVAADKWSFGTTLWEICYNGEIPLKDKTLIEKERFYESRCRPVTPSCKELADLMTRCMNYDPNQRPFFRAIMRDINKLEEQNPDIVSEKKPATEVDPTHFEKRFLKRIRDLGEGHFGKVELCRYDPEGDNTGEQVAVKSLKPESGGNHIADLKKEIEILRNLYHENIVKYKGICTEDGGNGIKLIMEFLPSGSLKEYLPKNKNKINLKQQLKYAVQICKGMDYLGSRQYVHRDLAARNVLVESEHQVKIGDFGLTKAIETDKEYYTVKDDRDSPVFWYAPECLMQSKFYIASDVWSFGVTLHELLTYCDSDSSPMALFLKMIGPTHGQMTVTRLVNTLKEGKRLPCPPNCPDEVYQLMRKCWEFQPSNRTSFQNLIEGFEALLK
Chain of Tyrosine-protein kinase Lck (Homo sapiens) (P06239 2-509 limits assumed): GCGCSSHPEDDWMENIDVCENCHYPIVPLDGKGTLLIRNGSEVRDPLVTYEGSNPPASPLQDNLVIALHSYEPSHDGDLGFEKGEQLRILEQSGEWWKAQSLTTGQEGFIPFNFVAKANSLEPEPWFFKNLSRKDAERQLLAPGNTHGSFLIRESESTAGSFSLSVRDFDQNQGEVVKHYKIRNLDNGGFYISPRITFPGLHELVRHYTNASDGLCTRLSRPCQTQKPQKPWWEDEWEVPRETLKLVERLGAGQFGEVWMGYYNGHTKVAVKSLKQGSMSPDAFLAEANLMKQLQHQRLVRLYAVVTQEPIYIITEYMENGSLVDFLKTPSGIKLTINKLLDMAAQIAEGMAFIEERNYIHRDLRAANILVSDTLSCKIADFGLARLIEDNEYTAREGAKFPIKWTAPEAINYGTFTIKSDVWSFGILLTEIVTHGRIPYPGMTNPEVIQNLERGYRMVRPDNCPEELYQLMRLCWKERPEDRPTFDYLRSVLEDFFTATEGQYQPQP
Chain of Tyrosine-protein kinase Yes (Homo sapiens) (P07947 2-543 limits assumed): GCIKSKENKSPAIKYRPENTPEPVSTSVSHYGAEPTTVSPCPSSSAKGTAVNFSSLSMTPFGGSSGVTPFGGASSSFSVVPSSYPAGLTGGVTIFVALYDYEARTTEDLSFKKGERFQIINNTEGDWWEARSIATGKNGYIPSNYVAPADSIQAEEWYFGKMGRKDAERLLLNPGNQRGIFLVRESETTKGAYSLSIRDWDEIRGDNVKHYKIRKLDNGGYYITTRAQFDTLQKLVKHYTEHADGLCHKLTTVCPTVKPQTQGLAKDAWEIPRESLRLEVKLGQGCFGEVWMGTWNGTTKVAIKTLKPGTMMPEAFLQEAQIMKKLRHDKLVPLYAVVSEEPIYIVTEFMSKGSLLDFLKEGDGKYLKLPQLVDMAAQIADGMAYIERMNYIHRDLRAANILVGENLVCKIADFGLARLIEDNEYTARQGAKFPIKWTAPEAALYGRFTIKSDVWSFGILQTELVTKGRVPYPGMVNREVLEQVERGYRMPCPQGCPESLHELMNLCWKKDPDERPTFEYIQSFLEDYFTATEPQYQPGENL
Chain of Mitogen-activated protein kinase 1 (Homo sapiens) (P28482 whole entry): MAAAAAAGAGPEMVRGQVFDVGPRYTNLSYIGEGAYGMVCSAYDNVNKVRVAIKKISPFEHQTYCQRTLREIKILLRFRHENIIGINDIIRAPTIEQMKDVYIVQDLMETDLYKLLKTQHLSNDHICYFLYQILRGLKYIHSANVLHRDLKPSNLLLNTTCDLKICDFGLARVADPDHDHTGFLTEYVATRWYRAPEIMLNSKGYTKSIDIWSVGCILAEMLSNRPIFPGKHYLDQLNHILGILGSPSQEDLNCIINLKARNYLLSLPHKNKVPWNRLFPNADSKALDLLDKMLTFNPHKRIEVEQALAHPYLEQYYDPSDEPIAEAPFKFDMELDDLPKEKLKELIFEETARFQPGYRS

## OC[C@@H](Nc1ncnc2sc(-c3ccc(O)cc3)cc12)c1ccccc1
[1]
  inhibition: 21%
[2]
  inhibition: 6%
[3]
  inhibition: 8%
[4]
  inhibition: 0%
[5]
  inhibition: -2%
[6]
  inhibition: 1%
[7]
  inhibition: -9%
[8]
  inhibition: 16%
PBMC [9]
  IC50: 2800 nM
[10]
  inhibition: 2%
[11]
  inhibition: 1%
[12]
  inhibition: 5%
[13]
  inhibition: -2%
[14]
  inhibition: 15%
[15]
  inhibition: 13%
[16]
  inhibition: 7%
PBMC [17]
  IC50: > 30000 nM
[18]
  inhibition: 31%
[19]
  inhibition: 6%
[20]
  inhibition: 7%
[21]
  inhibition: 8%
[22]
  inhibition: 3%
[23]
  inhibition: 20%
[24]
  inhibition: 30%

## OCc1ccc(-c2cc3c(N[C@H](CO)c4ccccc4)ncnc3[nH]2)cc1
[1]
  inhibition: 74%
[2]
  inhibition: 10%
[3]
  inhibition: 84%
[25]
  inhibition: 74%
[4]
  inhibition: 6%
[5]
  inhibition: -1%
[6]
  inhibition: 4%
[7]
  inhibition: -1%
[8]
  inhibition: 43%
PBMC [9]
  IC50: 1400 nM
[10]
  inhibition: 6%
[11]
  inhibition: 6%
[12]
  inhibition: 9%
[13]
  inhibition: 4%
[14]
  inhibition: -1%
[15]
  inhibition: 81%
[16]
  inhibition: 12%
PBMC [17]
  IC50: > 10000 nM
[18]
  inhibition: 96%
[19]
  inhibition: 3%
[20]
  inhibition: 9%
[21]
  inhibition: 17%
[22]
  inhibition: 36%
[23]
  inhibition: 38%
[24]
  inhibition: 48%

## CCC(=O)Nc1ccc(-c2c[nH]c3ncnc(N[C@H](C)c4ccccc4)c23)cc1
[1]
  inhibition: 14%
[2]
  inhibition: 31%
[3]
  inhibition: 5%
[25]
  inhibition: 16%
[4]
  inhibition: 21%
[5]
  inhibition: 3%
[6]
  inhibition: 11%
[7]
  inhibition: 14%
[8]
  inhibition: 42%
PBMC [9]
  IC50: 2100 nM
[10]
  inhibition: 6%
[11]
  inhibition: 13%
[12]
  inhibition: 3%
[13]
  inhibition: 1%
[14]
  inhibition: -3%
[15]
  inhibition: 9%
[16]
  inhibition: 11%
PBMC [17]
  IC50: > 10000 nM
[18]
  inhibition: 21%
[19]
  inhibition: 0%
[20]
  inhibition: 6%
[21]
  inhibition: 3%
[22]
  inhibition: 19%
[23]
  inhibition: 7%
[24]
  inhibition: 41%

## CN(C)CCn1cc(-c2cccc(O)c2)c2c(N)ncnc21
[1]
  inhibition: 28%
[2]
  inhibition: 7%
[3]
  inhibition: 69%
[25]
  inhibition: 55%
[4]
  inhibition: 15%
[5]
  inhibition: 3%
[6]
  inhibition: 12%
[7]
  inhibition: 8%
[8]
  inhibition: 38%
PBMC [9]
  IC50: 1200 nM
[10]
  inhibition: 33%
[11]
  inhibition: 7%
[12]
  inhibition: 62%
[13]
  inhibition: 5%
[14]
  inhibition: -2%
[15]
  inhibition: 65%
[16]
  inhibition: 14%
PBMC [17]
  IC50: > 10000 nM
[18]
  inhibition: 39%
[19]
  inhibition: 0%
[20]
  inhibition: 6%
[21]
  inhibition: 8%
[22]
  inhibition: 32%
[23]
  inhibition: 17%
[24]
  inhibition: 5%
